Data: patent US20170157145A1, “SUBSTANCE INDUCING EXPRESSION OF PARKIN POLYPEPTIDE AND USE THEREOF” (Samsung Electronics Co., Ltd., priority 2015, published 2017)

Columns and labels:
human Parkin promoter = experiment: Parkin promoter luciferase screening in HEK-Parkin-Luc cell line; type: cell-based; conditions: relative to DMSO, 10 μM, about 24 hours
Description: To identify compounds capable of inducing expression of Parkin protein at the promoter level, a pGL3-Parkin-Luc DNA construct was used (Cell Death and Differentiation, vol. 18, No. 5, p. 769-782, 2011.05 ). This construct was used to quantify the activity of human Parkin promoter by luminescence intensity due to a luciferase expression level. As a cell line, a human embryonic kidney cell line HEK-293T (ATCC), which maintains Parkin protein activity at a low level, was prepared.
Thereafter, 5 μg/ml of puromycin (Calbiochem) was added to the HEK-293T cells, and cultured at 37° C. and 5 % CO2 for about 21 days. Every 3 days, the medium was replaced by a fresh medium containing 5 μg/ml of puromycin. Stable cell lines were established from single colonies of the cultured cell line. A cell line showing stable luciferase activity was obtained, and designated as HEK-Parkin-Luc, which was used to screen for compounds capable of activating the Parkin promoter. […]
Then, the cultured cells were washed with PBS, and a luminescent substrate (Promega) was added. Luminescence intensity of the cells was measured using a microplate luminometer (Berthold Technologies), and luciferase activity relative to a negative control of 0.1% DMSO was calculated.

Parkin protein = experiment: Immunoblotting of Parkin protein in HEK 293T cells; type: cell-based, human; conditions: Parkin protein relative to DMSO, 10 μM, about 48 hours
Description: Among the 44 compounds selected in the initial screen described in 2, 22 compounds were examined to determine whether they increased expression of Parkin protein when they are applied to an HEK 293T cell line.
10 μM of each compound was added to the HEK 293T cells, and cultured at 37° C. and 5% CO2 for about 48 hours. The cultured cells were collected, and proteins were obtained from the cells. Anti-Parkin protein antibody (Cell signaling) and anti-beta actin antibody (Sigma-Aldrich) were used to perform immunoblotting, and an image of the immunoblotting is shown in FIG. 1.

HEK 293T cell line = experiment: Cell protecting effect against H2O2 oxidative stress cytotoxicity (Alamar blue assay); type: cell-based, human; conditions: cytotoxicity inhibition ratio relative to DMSO; 10 μM 48 hours, then H2O2 500 μM 90 minutes
Description: A cytotoxicity-induced model by application of oxidative stress to the HEK 293T cell line was used. 10 μM of each of the 22 compounds was applied to the HEK cell line and cultured at 37° C. and 5% CO2 for about 48 hours. H2O2 (Sigma-Aldrich, final concentration of 500 μM) was applied to the cultured cells and cultured at 37° C. and 5% CO2 for about 90 minutes. Thereafter, cells were collected and cytotoxicity was examined by Alamar blue® assay (Thermo Fisher Scientific).
The level of H2O2-induced cytotoxicity in cells treated with each of the 22 compounds was compared with cells treated with DMSO alone. 16 compounds having a significant cytotoxicity inhibitory effect (P<0.05) against oxidative stress were selected.
In Table 1, the values of luciferase activity and immunoblotting were expressed relative to DMSO, and the cell protecting effect (%) represents a cytotoxicity inhibition ratio, relative to DMSO. […] Further, “n” represents the number of experiments that were repeated, and “s.e.” represents standard error.

parkin = experiment: Parkin expression in mouse brain subregions after i.p. hydrocortisone (immunoblot); type: in vivo; conditions: striatum, ventral midbrain and cerebellum; i.p. 7 days; vs vehicle treated control mice; normalized to β-actin
Description: The head skin was closed by suturing and wound healing and recovery were monitored following surgery. […] The brain was removed and processed for immunohistochemistry. […] After homogenization, samples were rotated at 4° C. for 30 min for complete lysis, then the homogenate was centrifuged at 52,000 rpm for 20 min, and the resulting fractions were collected. Protein levels were quantified using the BCA kit (Pierce) with BSA standards and analyzed by immunoblot. […] The densitometric analyses of the bands were performed using ImageJ (NIH, http://rsb.info.nih.gov/ij/).

AIMP2 = AIMP2 level in mouse striatum and ventral midbrain after i.p. hydrocortisone (western blot); type: in vivo; conditions: hydrocortisone 7 days vs DMSO
Description: The head skin was closed by suturing and wound healing and recovery were monitored following surgery. […] The brain was removed and processed for immunohistochemistry. […] After homogenization, samples were rotated at 4° C. for 30 min for complete lysis, then the homogenate was centrifuged at 52,000 rpm for 20 min, and the resulting fractions were collected. Protein levels were quantified using the BCA kit (Pierce) with BSA standards and analyzed by immunoblot.
The densitometric analyses of the bands were performed using ImageJ (NIH, http://rsb.info.nih.gov/ij/).

[1] = test system: tyrosine hydroxylase (TH)-positive dopaminergic neurons in the substantia nigra pars compacta; experiment: 6-OHDA-induced PD mouse model, stereological count of TH-positive dopaminergic neurons; type: in vivo; conditions: hydrocortisone pretreatment 0.4 mg/kg i.p. daily; 6-OHDA 8 ug intrastriatal on day 7
Description: Hydrocortisone was given to mice intraperitoneally. Hydrocortisone administration began on day 1 and continued for 11 days followed by stereological assessment of dopamine neuron counts. 6-OHDA intrastriatal injection was done on day 7. For stereotaxic injection of 6-hydroxy dopamine (6-OHDA, 8 ug), eight-week-old C57/BL6 mice treated either with hydrocortisone for 7 days or DMSO as a control were anesthetized with pentobarbital (60 mg/kg). An injection cannula (26.5 gauge) was applied stereotaxically into the striatum (anteroposterior, 0.5 mm from bregma; mediolateral, 2.0 mm; dorsoventral, 3.0 mm) unilaterally (applied into the right hemisphere). […] The head skin was closed by suturing and wound healing and recovery were monitored following surgery. […] Protein levels were quantified using the BCA kit (Pierce) with BSA standards and analyzed by immunoblot. […]
After scheduled treatments of hydrocortisone (0.4 mg/kg body weight, i.p. administration daily) in 6-OHDA intoxication models and control groups, animals were anesthetized with pentobarbital (50 mg/kg, intraperitoneal injection) and perfused with PBS followed by 4% paraformaldehyde (wt/vol in PBS). […] Total numbers of TH-positive neurons in substantia nigra pars compacta were counted using the Optical Fractionator probe of Stereo Investigator software (MicroBrightfield, Williston, Vt.). […]

| Structure (SMILES) | Luciferase activity (human Parkin promoter) | Immunoblotting (Parkin protein) | Cell protecting effect (%) (HEK 293T cell line) | increase of parkin expression (parkin) | downregulation of parkin's toxic substrate AIMP2 (AIMP2) | dopaminergic neuronal survival against 6-OHDA intoxication [1] |
| --- | --- | --- | --- | --- | --- | --- |
| O=C(c1ccccc1)c1ccc2n1CCC2C(=O)O (racemic) [Ketorolac tromethamine, (±)-5-benzoyl-2,3-dihydro-1H-pyrrolizine-1-carboxylic acid] | 1.31 | 1.95 | 21.49% | – | – | – |
| C[C@]12CCC(=O)C=C1CC[C@@H]1[C@@H]2[C@@H](O)C[C@@]2(C)[C@H]1CC[C@]2(O)C(=O)CO [Hydrocortisone, (11β)-11,17,21-trihydroxypregn-4-ene-3,20-dione] | 1.52 | 1.11 | 35.53% | approximately two fold | 20% | markedly enhanced dopaminergic neuronal survival |
